Experimental data taken from patent US20240208937A1, “Compounds and Their Use for Treatment of Hemoglobinopathies” (Bristol-Myers Squibb Company, priority 2022, published 2024).

What was measured:
Format in all cases: cell-based
[1] = test system: fetal hemoglobin (HbF) in GCSF-mobilized human CD34+ cells; assay: HbF Induction Assay; conditions: 168 h; compound 1 μM, 7 days, erythroid-differentiated human CD34+ cells, flow cytometry; DMSO baseline 15% HbF positive cells
Procedure, shortened: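 GCSF-mobilized human CD34+ cells were expanded for 7 days with SCF, Flt3-L, IL-3 and EPO, then differentiated with SCF and EPO while dosed at 1 μM (0.1% DMSO), with compound refreshed every 2 days for 7 days. Viability and % HbF-positive cells and MFI were measured by flow cytometry with anti-HbF staining, relative to DMSO controls.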

[2] = target: WIZ (Widely interspaced zinc finger) (Homo sapiens (Human), UniProt O95785+Q96SW2); assay: HUDEP-2 WIZ HiBiT degradation assay; conditions: HUDEP-2 WIZ HiBiT cells, 24 hours treatment, luminescence; for DC50: read-out: WIZ EC50
Procedure, shortened: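 HiBiT-tagged WIZ HUDEP-2 cells were seeded at 1.0×10^6 cells/ml in supplemented StemSpan SFEM II with doxycycline and treated 24 h at 37 °C. Remaining tagged protein was read by Nano-Glo HiBiT lytic luminescence. EC50 and Y-min were fitted after DMSO normalization across 10 concentrations, 10 to 0.0005 μM.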

[3] = target: ZBTB7A (Zinc Finger And BTB Domain Containing 7A) (Homo sapiens (Human), UniProt O95365+Q96SW2); assay: HUDEP-2 ZBTB7A HiBiT degradation assay; conditions: HUDEP-2 ZBTB7A HiBiT cells, 24 hours treatment, luminescence; for DC50: read-out: ZBTB7A EC50
Procedure, shortened: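 HUDEP-2 cells carrying HiBiT-tagged ZBTB7A, grown 48 h in IMDM with EPO, SCF, insulin, transferrin, heparin, dox and 5% human plasma, then seeded at 1.0×10^6 cells/ml on pre-dispensed compound (10 concentrations, 10–0.0005 μM) for 24 h at 37 °C. Lytic HiBiT luminescence, DMSO-normalised, gave EC50 and Y-min.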

Sequence of WIZ (Widely interspaced zinc finger) (O95785 whole entry): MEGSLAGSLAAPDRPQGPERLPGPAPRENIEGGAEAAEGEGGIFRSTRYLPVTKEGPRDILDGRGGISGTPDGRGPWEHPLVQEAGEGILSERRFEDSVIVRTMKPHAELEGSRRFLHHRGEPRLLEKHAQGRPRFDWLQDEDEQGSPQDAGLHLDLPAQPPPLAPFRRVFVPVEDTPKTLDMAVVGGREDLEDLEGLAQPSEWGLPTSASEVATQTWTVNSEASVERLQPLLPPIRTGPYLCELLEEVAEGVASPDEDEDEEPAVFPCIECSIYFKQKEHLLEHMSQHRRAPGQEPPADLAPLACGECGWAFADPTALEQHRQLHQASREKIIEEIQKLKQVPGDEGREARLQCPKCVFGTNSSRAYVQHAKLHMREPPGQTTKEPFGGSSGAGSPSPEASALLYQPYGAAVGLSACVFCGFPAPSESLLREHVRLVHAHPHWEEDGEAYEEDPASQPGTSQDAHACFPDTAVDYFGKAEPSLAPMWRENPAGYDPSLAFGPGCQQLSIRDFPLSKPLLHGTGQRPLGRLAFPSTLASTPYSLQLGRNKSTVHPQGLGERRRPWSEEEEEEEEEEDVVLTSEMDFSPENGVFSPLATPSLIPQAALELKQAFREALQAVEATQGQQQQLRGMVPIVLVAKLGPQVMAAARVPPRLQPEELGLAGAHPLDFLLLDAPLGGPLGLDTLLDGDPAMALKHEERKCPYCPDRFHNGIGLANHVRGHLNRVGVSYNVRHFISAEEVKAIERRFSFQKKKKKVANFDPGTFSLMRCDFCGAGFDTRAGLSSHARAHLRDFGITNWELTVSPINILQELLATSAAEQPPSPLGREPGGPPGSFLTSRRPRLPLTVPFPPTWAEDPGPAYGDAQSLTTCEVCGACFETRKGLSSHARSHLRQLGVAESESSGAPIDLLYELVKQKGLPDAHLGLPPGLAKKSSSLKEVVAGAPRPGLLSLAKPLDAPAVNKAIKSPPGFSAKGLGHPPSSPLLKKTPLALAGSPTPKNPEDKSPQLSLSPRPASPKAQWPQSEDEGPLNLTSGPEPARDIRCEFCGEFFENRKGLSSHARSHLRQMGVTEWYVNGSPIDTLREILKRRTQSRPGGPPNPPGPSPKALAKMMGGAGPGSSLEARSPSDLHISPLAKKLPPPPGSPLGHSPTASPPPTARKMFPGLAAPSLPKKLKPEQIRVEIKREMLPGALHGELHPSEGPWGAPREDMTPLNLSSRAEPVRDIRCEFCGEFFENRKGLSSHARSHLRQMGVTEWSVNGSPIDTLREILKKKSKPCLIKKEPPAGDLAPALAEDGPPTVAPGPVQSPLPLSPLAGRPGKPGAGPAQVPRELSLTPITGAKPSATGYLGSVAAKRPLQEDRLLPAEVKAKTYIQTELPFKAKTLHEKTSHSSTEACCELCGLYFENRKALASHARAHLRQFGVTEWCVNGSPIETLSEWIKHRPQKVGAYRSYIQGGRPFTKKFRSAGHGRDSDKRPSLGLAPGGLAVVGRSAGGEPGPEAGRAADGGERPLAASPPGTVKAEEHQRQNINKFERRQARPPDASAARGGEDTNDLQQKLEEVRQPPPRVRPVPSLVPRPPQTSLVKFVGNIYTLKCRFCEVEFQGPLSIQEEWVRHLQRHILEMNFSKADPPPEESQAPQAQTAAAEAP
Sequence of WIZ (Widely interspaced zinc finger) (Q96SW2 whole entry): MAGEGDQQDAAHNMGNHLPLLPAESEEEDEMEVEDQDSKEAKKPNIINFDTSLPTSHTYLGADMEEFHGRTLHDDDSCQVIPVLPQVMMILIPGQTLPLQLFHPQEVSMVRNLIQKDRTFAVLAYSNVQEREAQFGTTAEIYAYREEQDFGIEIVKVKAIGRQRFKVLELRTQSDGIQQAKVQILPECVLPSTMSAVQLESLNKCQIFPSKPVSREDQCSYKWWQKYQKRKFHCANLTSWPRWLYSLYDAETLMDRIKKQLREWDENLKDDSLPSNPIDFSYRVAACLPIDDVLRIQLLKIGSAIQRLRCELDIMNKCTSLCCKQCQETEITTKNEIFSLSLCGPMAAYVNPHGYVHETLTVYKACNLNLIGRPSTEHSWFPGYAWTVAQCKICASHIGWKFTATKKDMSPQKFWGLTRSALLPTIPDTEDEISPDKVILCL
Sequence of WIZ (Widely interspaced zinc finger) (Q16531 whole entry partner): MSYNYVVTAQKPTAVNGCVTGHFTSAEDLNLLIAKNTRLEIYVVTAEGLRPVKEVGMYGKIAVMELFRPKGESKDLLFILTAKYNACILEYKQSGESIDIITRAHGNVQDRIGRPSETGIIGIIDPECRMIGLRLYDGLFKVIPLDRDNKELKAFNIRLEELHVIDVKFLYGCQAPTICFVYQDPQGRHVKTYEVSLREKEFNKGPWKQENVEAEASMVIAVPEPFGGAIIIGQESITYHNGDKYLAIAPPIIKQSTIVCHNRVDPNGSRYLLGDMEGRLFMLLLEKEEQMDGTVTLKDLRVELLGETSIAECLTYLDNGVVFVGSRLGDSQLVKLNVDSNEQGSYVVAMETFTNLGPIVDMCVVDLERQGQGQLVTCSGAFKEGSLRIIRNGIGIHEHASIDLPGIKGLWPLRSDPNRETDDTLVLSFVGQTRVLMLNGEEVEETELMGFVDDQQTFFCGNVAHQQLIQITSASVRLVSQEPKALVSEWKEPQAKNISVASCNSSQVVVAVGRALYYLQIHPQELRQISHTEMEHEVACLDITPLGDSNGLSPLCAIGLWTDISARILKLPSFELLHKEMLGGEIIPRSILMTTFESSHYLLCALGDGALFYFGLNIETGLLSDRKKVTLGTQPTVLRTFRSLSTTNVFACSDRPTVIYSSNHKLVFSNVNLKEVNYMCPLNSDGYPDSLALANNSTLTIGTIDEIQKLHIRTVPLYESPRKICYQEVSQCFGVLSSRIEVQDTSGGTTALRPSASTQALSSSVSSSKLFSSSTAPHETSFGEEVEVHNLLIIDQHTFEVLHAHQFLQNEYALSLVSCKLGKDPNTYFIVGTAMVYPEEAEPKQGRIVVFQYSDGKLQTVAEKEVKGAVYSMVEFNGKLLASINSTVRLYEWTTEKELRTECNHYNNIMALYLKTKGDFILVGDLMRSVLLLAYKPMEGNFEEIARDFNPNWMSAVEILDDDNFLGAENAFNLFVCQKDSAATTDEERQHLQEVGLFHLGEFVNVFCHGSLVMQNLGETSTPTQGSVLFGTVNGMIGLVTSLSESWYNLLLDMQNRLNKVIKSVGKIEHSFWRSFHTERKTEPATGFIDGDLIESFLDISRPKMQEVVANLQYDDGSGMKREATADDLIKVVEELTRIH
Sequence of ZBTB7A (Zinc Finger And BTB Domain Containing 7A) (O95365 whole entry, the tested form may be a part): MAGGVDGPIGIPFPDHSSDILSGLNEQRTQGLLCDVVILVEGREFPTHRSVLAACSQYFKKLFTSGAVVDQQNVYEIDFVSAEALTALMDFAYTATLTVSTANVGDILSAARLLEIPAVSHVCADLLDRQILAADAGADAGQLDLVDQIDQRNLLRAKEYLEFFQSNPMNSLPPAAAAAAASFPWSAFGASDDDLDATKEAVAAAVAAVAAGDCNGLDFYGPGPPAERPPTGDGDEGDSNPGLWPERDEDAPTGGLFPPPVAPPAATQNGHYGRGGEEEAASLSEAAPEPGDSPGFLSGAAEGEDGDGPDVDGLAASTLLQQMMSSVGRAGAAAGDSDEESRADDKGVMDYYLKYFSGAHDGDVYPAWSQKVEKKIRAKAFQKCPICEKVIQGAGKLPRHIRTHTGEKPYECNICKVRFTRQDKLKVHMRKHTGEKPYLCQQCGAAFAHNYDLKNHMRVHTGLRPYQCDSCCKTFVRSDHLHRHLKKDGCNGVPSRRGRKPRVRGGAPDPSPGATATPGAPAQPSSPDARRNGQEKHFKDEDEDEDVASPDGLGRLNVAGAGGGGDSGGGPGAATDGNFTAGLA
Sequence of ZBTB7A (Zinc Finger And BTB Domain Containing 7A) (Q96SW2 whole entry, the tested form may be a part): as the sequence (Q96SW2 whole entry) above
Sequence of ZBTB7A (Zinc Finger And BTB Domain Containing 7A) (Q16531 whole entry partner, the tested form may be a part): as the sequence (Q16531 whole entry partner) above

Row | SMILES | activation at 1 µM [1] [%] | DC50 [2] [µM] | DC50 [3] [µM] | EC50 [3] [µM] | EC50 [2] [µM]
1 | COc1ccc(-c2cc3ncn(C)c3cc2Nc2cccc3c2C(=O)N(C2CCC(=O)NC2=O)C3=O)cc1F (stereo not drawn) [Compound 5, 2-(2,6-dioxopiperidin-3-yl)-4-((5-(3-fluoro-4-methoxyphenyl)-1-methyl-1H-benzo[d]imidazol-6-yl)amino)isoindoline-1,3-dione] | 66 to 100 | 0.01 to 0.1 | 0.03 to 0.1 | – | –
2 | Cc1cc(-c2cc3c(cc2Nc2cccc4c2C(=O)N(C2CCC(=O)NC2=O)C4=O)nc(C)n3C)ccn1 (stereo not drawn) [Compound 23, 4-((1,2-dimethyl-6-(2-methylpyridin-4-yl)-1H-benzo[d]imidazol-5-yl)amino)-2-(2,6-dioxopiperidin-3-yl)isoindoline-1,3-dione] | 33 to 66 | > 0.1 | – | > 0.1 | –
3 | Cc1cc(-c2cc3c(cc2Nc2cccc4c2C(=O)N(C2CCC(=O)NC2=O)C4=O)N(C)C(=O)CC3)cc(C)n1 (stereo not drawn) [Compound 48, 4-((6-(2,6-dimethylpyridin-4-yl)-1-methyl-2-oxo-1,2,3,4-tetrahydroquinolin-7-yl)amino)-2-(2,6-dioxopiperidin-3-yl)isoindoline-1,3-dione] | 66 to 100 | – | – | < 0.03 | < 0.01
4 | Cc1cc(-c2cc3c(cnn3[C@@H]3CCOC3)cc2Nc2cccc3c2C(=O)N([C@H]2CCC(=O)NC2=O)C3=O)ccn1 [Compound 44, 2-((S)-2,6-dioxopiperidin-3-yl)-4-((6-(2-methylpyridin-4-yl)-1-((R)-tetrahydrofuran-3-yl)-1H-indazol-5-yl)amino)isoindoline-1,3-dione] | 66 to 100 | 0.01 to 0.1 | 0.03 to 0.1 | – | –
5 | COc1cc(OCCN2CCCCC2)ccc1Nc1cccc2c1C(=O)N(C1CCC(=O)NC1=O)C2=O (stereo not drawn) [Compound 12, 2-(2,6-dioxopiperidin-3-yl)-4-((2-methoxy-4-(2-(piperidin-1-yl)ethoxy)phenyl)amino)isoindoline-1,3-dione] | 66 to 100 | – | 0.03 to 0.1 | – | < 0.01
6 | Cc1cc(-c2cc3ncn(C4CC4)c3cc2Nc2cccc3c2C(=O)N(C2CCC(=O)NC2=O)C3=O)ccn1 (stereo not drawn) [Compound 2, 4-((1-cyclopropyl-5-(2-methylpyridin-4-yl)-1H-benzo[d]imidazol-6-yl)amino)-2-(2,6-dioxopiperidin-3-yl)isoindoline-1,3-dione] | 66 to 100 | < 0.01 | < 0.03 | – | –
7 | Cn1ncc2cc(Nc3cccc4c3C(=O)N(C3CCC(=O)NC3=O)C4=O)c(Oc3cccc(Cl)c3)cc21 (stereo not drawn) [Compound 25, 4-((6-(3-chlorophenoxy)-1-methyl-1H-indazol-5-yl)amino)-2-(2,6-dioxopiperidin-3-yl)isoindoline-1,3-dione] | 33 to 66 | 0.01 to 0.1 | – | > 0.1 | –
8 | Cc1cc(-c2cc3c(cnn3C)cc2Nc2cccc3c2C(=O)N(C2CCC(=O)NC2=O)C3=O)cnn1 (stereo not drawn) [Compound 24, 2-(2,6-dioxopiperidin-3-yl)-4-((1-methyl-6-(6-methylpyridazin-4-yl)-1H-indazol-5-yl)amino)isoindoline-1,3-dione] | 33 to 66 | > 0.1 | – | > 0.1 | –
9 | Cc1csc(-c2cc3c(cc2Nc2cccc4c2C(=O)N(C2CCC(=O)NC2=O)C4=O)N(C)C(=O)CC3)n1 (stereo not drawn) [Compound 39, 2-(2,6-dioxopiperidin-3-yl)-4-((1-methyl-6-(4-methylthiazol-2-yl)-2-oxo-1,2,3,4-tetrahydroquinolin-7-yl)amino)isoindoline-1,3-dione] | 33 to 66 | 0.01 to 0.1 | 0.03 to 0.1 | – | –
10 | Cc1cc(-c2cc3cnn(C)c3cc2Nc2cccc3c2C(=O)N(C2CCC(=O)NC2=O)C3=O)ccn1 (stereo not drawn) [Compound 7, 2-(2,6-dioxopiperidin-3-yl)-4-((1-methyl-5-(2-methylpyridin-4-yl)-1H-indazol-6-yl)amino)isoindoline-1,3-dione] | 66 to 100 | 0.01 to 0.1 | 0.03 to 0.1 | – | –
11 | Cc1c(Nc2cccc3c2C(=O)N(C2CCC(=O)NC2=O)C3=O)ccc2c1cnn2C1CCOCC1 (stereo not drawn) [Compound 20, 2-(2,6-dioxopiperidin-3-yl)-4-((4-methyl-1-(tetrahydro-2H-pyran-4-yl)-1H-indazol-5-yl)amino)isoindoline-1,3-dione] | 33 to 66 | – | – | > 0.1 | < 0.01
12 | Cc1cc(Oc2ccccc2)c(Nc2cccc3c2C(=O)N(C2CCC(=O)NC2=O)C3=O)cn1 (stereo not drawn) [Compound 21, 2-(2,6-dioxopiperidin-3-yl)-4-((6-methyl-4-phenoxypyridin-3-yl)amino)isoindoline-1,3-dione] | 33 to 66 | – | 0.03 to 0.1 | – | < 0.01
13 | Cn1ncc2cc(Oc3ccccc3)c(Nc3cccc4c3C(=O)N(C3CCC(=O)NC3=O)C4=O)cc21 (stereo not drawn) [Compound 27, 2-(2,6-dioxopiperidin-3-yl)-4-((1-methyl-5-phenoxy-1H-indazol-6-yl)amino)isoindoline-1,3-dione] | < 33 | 0.01 to 0.1 | – | > 0.1 | –
14 | Cc1cccc(F)c1Oc1ccc2c(cnn2C)c1Nc1cccc2c1C(=O)N(C1CCC(=O)NC1=O)C2=O (stereo not drawn) [Compound 6, 2-(2,6-dioxopiperidin-3-yl)-4-((5-(2-fluoro-6-methylphenoxy)-1-methyl-1H-indazol-4-yl)amino)isoindoline-1,3-dione] | 66 to 100 | – | 0.03 to 0.1 | – | < 0.01
15 | Cc1nccc(-c2cc3c(cc2Nc2cccc4c2C(=O)N(C2CCC(=O)NC2=O)C4=O)N(C)C(=O)CC3)c1Cl (stereo not drawn) [Compound 47, 4-((6-(3-chloro-2-methylpyridin-4-yl)-1-methyl-2-oxo-1,2,3,4-tetrahydroquinolin-7-yl)amino)-2-(2,6-dioxopiperidin-3-yl)isoindoline-1,3-dione] | 66 to 100 | – | – | < 0.03 | < 0.01
16 | Cc1cc(-c2cc3c(cnn3C)cc2Nc2cccc3c2C(=O)N([C@H]2CCC(=O)NC2=O)C3=O)ccn1 [Compound 42, (S)-2-(2,6-dioxopiperidin-3-yl)-4-((1-methyl-6-(2-methylpyridin-4-yl)-1H-indazol-5-yl)amino)isoindoline-1,3-dione] | 33 to 66 | > 0.1 | 0.03 to 0.1 | – | –
17 | Cc1cc(-c2cc3c(cc2Nc2cccc4c2C(=O)N(C2CCC(=O)NC2=O)C4=O)N(C)C(=O)CC3)ccn1 (stereo not drawn) [Compound 43, 2-(2,6-dioxopiperidin-3-yl)-4-((1-methyl-6-(2-methylpyridin-4-yl)-2-oxo-1,2,3,4-tetrahydroquinolin-7-yl)amino)isoindoline-1,3-dione] | 66 to 100 | – | – | < 0.03 | < 0.01
18 | Cc1cc(-c2cc3nc(C)n(C)c3cc2Nc2cccc3c2C(=O)N(C2CCC(=O)NC2=O)C3=O)ccn1 (stereo not drawn) [Compound 1, 4-((1,2-dimethyl-5-(2-methylpyridin-4-yl)-1H-benzo[d]imidazol-6-yl)amino)-2-(2,6-dioxopiperidin-3-yl)isoindoline-1,3-dione] | 66 to 100 | 0.01 to 0.1 | < 0.03 | – | –
19 | O=C1CCC(N2C(=O)c3cccc(Nc4cc5cnn(C6CCOCC6)c5cc4-c4ccnc(C(F)F)c4)c3C2=O)C(=O)N1 (stereo not drawn) [Compound 11, 4-((6-(2-(difluoromethyl)pyridin-4-yl)-1-(tetrahydro-2H-pyran-4-yl)-1H-indazol-5-yl)amino)-2-(2,6-dioxopiperidin-3-yl)isoindoline-1,3-dione] | 66 to 100 | > 0.1 | – | > 0.1 | –
